How the values were obtained:
β3 integrin = β3 integrin tyrosine phosphorylation (Tyr-747 and 759) in HUVECs, Western blot; assay type: cell-based, Human; settings: adherent endothelial cells plated on vitronectin
Description: αvβ3 integrin is expressed on proliferating endothelial cells during angiogenesis and vascular remodeling and the blockade of αvβ3 integrin suppressed angiogenesis in several in vivo models. Therefore, we assessed whether the blockade of αvβ3 affected tyrosine phosphorylation of β3 subunit. […] Cells were also treated with non-immune IgG as control. These cells were washed and further induced with VEGF for 5 min at 37° C. Cell lysates were analyzed for phosphorylation of β3 integrin (Tyr-747 and 759). […] Basal level of β3 integrin tyrosine phosphorylation remains unaffected irrespective of different blocking antibody treatment. To further examine consequences of αvβ3 integrin blocking antibodies, cell lysates were analyzed for tyrosine phosphorylation of VEGFR-2 (Tyr-1175).
Cytoplasmic domains of integrin β subunits are highly conserved and represents region of structural homology between the various groups. […] Cell lysates were analyzed for the phosphorylation of β3 integrin. […]
Cells were lysed in immunoprecipitation lysis buffer (1% Noniodet P-40, 150 mM NaCl, 50 mM Tris-HCL (pH 7.8), 2 mM EDTA, 10 mM NaF, 10 mM Na2P2O7, 2 mM Na3VO4 10 μg/mL leupeptin, 4 μg/mL pepstatin and 0.1 U/mL aprotinin). […] Bands were analyzed by densitomeric analysis using Kodak 1D software and fold changes were indicated.

c-Src = target: T1, c-Src (Homo sapiens, UniProt P12931); test: In vitro kinase assay, c-Src phosphorylation of β3 integrin cytoplasmic domain or peptides; assay type: biochemical; settings: [γ-32P] ATP incorporation
T1 construct: c-Src was immunoprecipitated from VEGF-stimulated HUVEC; endogenous in cells; host or cells: HUVEC (immunoprecipitate)
T1 sequence (P12931 whole entry, the tested form may be a part): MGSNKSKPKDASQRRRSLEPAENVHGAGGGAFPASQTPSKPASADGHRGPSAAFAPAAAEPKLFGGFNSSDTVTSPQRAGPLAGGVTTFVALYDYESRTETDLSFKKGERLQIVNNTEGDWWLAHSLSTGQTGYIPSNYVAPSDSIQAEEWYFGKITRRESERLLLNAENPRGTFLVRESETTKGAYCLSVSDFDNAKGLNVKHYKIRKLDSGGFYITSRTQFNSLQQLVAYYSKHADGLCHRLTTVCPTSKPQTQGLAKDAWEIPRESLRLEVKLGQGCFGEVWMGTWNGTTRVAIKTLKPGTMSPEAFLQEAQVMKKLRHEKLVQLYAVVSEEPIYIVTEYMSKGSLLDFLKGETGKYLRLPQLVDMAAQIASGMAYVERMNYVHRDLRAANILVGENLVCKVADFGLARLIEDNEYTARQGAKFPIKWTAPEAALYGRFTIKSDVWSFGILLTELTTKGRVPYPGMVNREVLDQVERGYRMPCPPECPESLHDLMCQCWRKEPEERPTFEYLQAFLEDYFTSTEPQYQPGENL
Excerpt: Principle mechanism by which integrins appear to mediate the transfer of information from extracellular environment to intracellular milieu is through phosphorylation of β-subunit at cytoplasmic tyrosine motifs. Ligand occupancy of αvβ3 is a prerequisite for the tyrosine phosphorylation events and implying an important role for outside-in integrin signaling in this process. To examine whether c-Src can directly mediate β3 integrin tyrosine phosphorylation, c-Src was immunoprecipitated from VEGF-stimulated HUVEC. Immunocomplex were incubated with a full-length purified β3 integrin cytoplasmic domain, and [γ-^32P] ATP incorporation into was monitored. […] Recombinant purified c-Src also phosphorylated the β3 integrin whereas no phosphorylation was observed without the substrate, indicating the specificity of the reaction (lane 1 and 5). […] To further investigate whether c-Src phosphorylates Tyr-747 or Tyr-759 of β3 integrin or both residues, kinase assay were performed using peptide derived from these two distinct sites of β3 integrin as substrates (FIG. 20 E). […] In the presence of Tyr-747/Tyr-759 β3 integrin cytoplasmic peptide, a dramatic increase in [γ-^32P] ATP incorporation was observed as compared to control peptides devoid of tyrosine motifs. Similar results were observed using purified recombinant c-Src protein. As anticipated, [γ-^32P] […]

HUVECs [1] = test: Cell adhesion assay of HUVECs on vitronectin (Example 5); assay type: cell-based, Human
Description: Cells were washed twice with sterile PBS and re-suspended in DMEM. The cell suspensions were added to ligand-coated wells and placed in humidified incubator for 45 min. Wells were gently washed three times with DMEM and photographs were taken. The numbers of attached and spread cells per field were counted.

HUVECs [2] = test: Cell migration assay of HUVECs on vitronectin, VEGF as agonist (Example 5); assay type: cell-based, Human; settings: vitronectin as substrate
Description: To assess the role of Src-mediated β3 integrin tyrosine phosphorylation in αvβ3 integrin dependent EC migration, HUVECs transfected with various forms of Src were evaluated in migration assays using VEGF as an agonist and vitronectin as a substrate. […] To further evaluate the c-Src mediated β3 integrin cytoplasmic tyrosine motifs phosphorylation in αvβ3 integrin dependent endothelial cell migration, wild type and DiYF mouse lung microvascular endothelial cells were transfected with wild type, dominant negative and catalytically active form of c-Src and stimulated with VEGF (FIG. 23 B).
Transwell tissue culture inserts were coated with αvβ3 integrin ligand vitronectin for 24 h at 4° C. Endothelial cells were transfected with various forms of c-Src or treated with inhibitors and were trypsinized; then 1×10^5 cells were added into each well. Cells were allowed to migrate for 12 h and fixed with 70% methanol for 15 min and stained with Giemsa. The non-migrated cells adhered to the top surface were removed and three random 10× fields were photographed using an inverted phase contrast microscopy.

In the case of `CN(C)S(=O)(=O)c1ccc2c(c1)C(=Cc1cc3c([nH]1)CCCC3)C(=O)N2` [SU6656, 2-oxo-3(4,5,6,7-tetrahydro-1-H-indol-2-ylmethylene)-2,3-dihydro-1H-indole-5-sulfonic acid dimethylamide], the “effect on β3 integrin tyrosine phosphorylation” value (β3 integrin) is reported as “completely blocked”, the “effect on phosphorylation of β3 integrin cytoplasmic domain by immunoprecipitated c-Src” value (c-Src) is reported as “blocked this process” and the “effect on cell adhesion to vitronectin” value (HUVECs [1]) is reported as “caused impairment of cell adhesion to vitronectin”. The “effect on EC migration triggered by VEGF” value (HUVECs [2]) was “reduced EC migration triggered by VEGF”.
